Assay results published in patent US20260200920A1, “SUBSTITUTED AMINOPYRIDINE COMPOUNDS FOR USE AS AKT1 INHIBITORS” (Atavistik Bio, Inc., priority 2023, published 2026).

Experiments:
[1] = target: T1, human recombinant kinase full-length wildtype AKT1 (Homo sapiens, UniProt P31749); assay: AKT1 kinase assay (wildtype, TR-FRET, Lance); assay type: biochemical; conditions: 0.6 nM wildtype AKT1, 50 nM Ulight-CREBtide, either 50 μM ATP or 2 mM ATP, 60 min at RT
T1 construct: Purified human recombinant kinase full-length wildtype AKT1 was expressed in insect cells; made in house; host or cells: insect cells
T1 sequence (P31749 whole entry): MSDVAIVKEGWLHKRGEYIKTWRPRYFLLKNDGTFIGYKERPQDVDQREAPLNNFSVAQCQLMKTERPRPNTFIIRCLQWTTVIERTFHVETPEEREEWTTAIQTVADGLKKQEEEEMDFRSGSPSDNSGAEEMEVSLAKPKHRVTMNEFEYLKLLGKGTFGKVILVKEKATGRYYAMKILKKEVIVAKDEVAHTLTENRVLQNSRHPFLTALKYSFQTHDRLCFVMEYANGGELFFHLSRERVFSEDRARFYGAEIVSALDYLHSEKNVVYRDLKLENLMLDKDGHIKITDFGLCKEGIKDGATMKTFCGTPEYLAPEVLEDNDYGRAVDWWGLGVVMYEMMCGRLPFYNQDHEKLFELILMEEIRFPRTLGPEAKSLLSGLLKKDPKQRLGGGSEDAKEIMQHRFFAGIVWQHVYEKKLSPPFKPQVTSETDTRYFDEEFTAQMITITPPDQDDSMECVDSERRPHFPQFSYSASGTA
Method in brief: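 Insect-cell-expressed full-length human AKT1, PDPK1-activated (0.6 nM), preincubated with compound 15 min at RT, then reacted 60 min at RT with 50 nM ULight-CREBtide and 50 μM or 2 mM ATP (pH 7.5, 1% DMSO). Phospho-CREBtide read by Eu-anti-phospho-Ser133 TR-FRET (665/620 ratio); IC50 from 10-point 4-parameter fit.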

[2] = target: T2, human recombinant kinase full-length AKT1 E17K (Homo sapiens, UniProt P31749, E17K); assay: AKT1 E17K kinase assay (TR-FRET, Lance); assay type: biochemical; conditions: 0.6 nM AKT1 E17K, 50 nM Ulight-CREBtide, either 50 μM ATP or 2 mM ATP, 60 min at RT
T2 construct: Purified human recombinant kinase full-length AKT1 E17K was expressed in insect cells; made in house; host or cells: insect cells
T2 sequence (P31749 whole entry E17K): as the sequence (P31749 whole entry) above, with E17K counted along it
Method in brief: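 Full-length AKT1 E17K from insect cells, PDPK1-activated, at 0.6 nM with 50 nM Ulight-CREBtide and 50 μM or 2 mM ATP, pH 7.5, 1% DMSO. Enzyme and compound preincubated 15 min, reaction run 60 min at RT; Eu-anti-phospho-CREB (Ser133) TR-FRET 665/620 ratio, 10-point curve, IC50 by 4-parameter fit.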

Cc1nc(NC(=O)[C@H]2CC[C@H](C(=O)O)CC2)ccc1-n1c(-c2cccnc2N)nc2ccc(-c3ccc(F)cc3F)nc21 [Compound I-216]
IC50 [1]: < 20000 nM | IC50 [2]: ≥ 2000 nM

Nc1ncccc1-c1nc2ccc(-c3ccccc3)nc2n1-c1ccc(C2CN(C(=O)C3CC(=O)CC(=O)C3)C2)cc1 [Compound I-37, 5-(3-(4-(2-(2-aminopyridin-3-yl)-5-phenyl-3H-imidazo[4,5-b]pyridin-3-yl)phenyl)azetidine-1-carbonyl)cyclohexane-1,3-dione]
IC50 [1]: < 20000 nM | IC50 [2]: < 500 nM

CC1(c2ccc(-n3c(-c4cccnc4N)nc4ccc(-c5ccccc5)nc43)cc2)CN(C[C@H]2CC[C@H](C(=O)O)CC2)C1 [Compound I-154]
IC50 [1]: < 20000 nM | IC50 [2]: 500 to 2000 nM

Nc1ncccc1-c1nc2ccc(-c3ccccc3)nc2n1-c1ccc(NCC2CC3(C2)CC(C(=O)O)C3)nc1 (centres unmarked) [Compound I-137, 6-(((5-(2-(2-aminopyridin-3-yl)-5-phenyl-3H-imidazo[4,5-b]pyridin-3-yl)pyridin-2-yl)amino)methyl)spiro[3.3]heptane-2-carboxylic acid]
IC50 [1]: < 20000 nM | IC50 [2]: < 500 nM

Nc1ncccc1-c1nc2ccc(C3CCCC3)nc2n1-c1ccc(NC(=O)[C@H]2CC[C@H](C(=O)O)CC2)nc1 [Compound I-120, (1r,4r)-4-((5-(2-(2-aminopyridin-3-yl)-5-cyclopentyl-3H-imidazo[4,5-b]pyridin-3-yl)pyridin-2-yl)carbamoyl) cyclohexane-1-carboxylic acid]
IC50 [1]: < 20000 nM | IC50 [2]: 500 to 2000 nM

COc1ccccc1-c1ccc2nc(-c3cccnc3N)n(-c3ccc(NC(=O)[C@H]4CC[C@H](C(=O)O)CC4)nc3C)c2n1 [Compound I-220]
IC50 [1]: < 20000 nM | IC50 [2]: 500 to 2000 nM

CC1(C)C[C@H](CN2CC(c3ccc(-n4c(-c5cccnc5N)nc5ccc(-c6ccccc6)nc54)cc3)C2)CC(C)(C)[C@H]1C(=O)O [Compound I-147]
IC50 [1]: < 20000 nM | IC50 [2]: < 500 nM

Cc1nc(NC(=O)[C@H]2CC[C@H](C(=O)O)CC2)ccc1-n1c(-c2cccnc2N)nc2ccc(-c3c(F)cccc3F)nc21 [Compound I-217]
IC50 [1]: < 20000 nM | IC50 [2]: 500 to 2000 nM

Cc1nc(NC(=O)N2CCC(C(=O)O)CC2)ccc1-n1c(-c2cccnc2N)nc2ccc(-c3ccccc3)nc21 [Compound I-182]
IC50 [1]: < 20000 nM | IC50 [2]: < 500 nM

Cc1cc(CN(C)[C@H]2CC[C@H](C(=O)O)CC2)ccc1-n1c(-c2cccnc2N)nc2ccc(-c3ccccc3)nc21 [Compound I-178]
IC50 [1]: < 20000 nM | IC50 [2]: ≥ 2000 nM

Nc1ncccc1-c1nc2ccc(-c3ccccc3)nc2n1-c1ccc(NC(=O)C2CC3(CC(C(=O)O)C3)C2)cc1 (centres unmarked) [Compound I-46, 6-[[4-[2-(2-amino-3-pyridyl)-5-phenyl-imidazo[4,5-b]pyridin-3-yl]phenyl]carbamoyl]spiro[3.3]heptane-2-carboxylic acid]
IC50 [1]: < 20000 nM | IC50 [2]: < 500 nM

CN(Cc1ccc(-n2c(-c3cccnc3N)nc3ccc(-c4ccccc4)nc32)cc1)[C@H]1CC[C@H](CC(=O)O)CC1 [Compound I-169]
IC50 [1]: < 20000 nM | IC50 [2]: < 500 nM

CC1(C)C[C@@H](CN2CC(c3ccc(-n4c(-c5cccnc5N)nc5ccc(-c6ccccc6)nc54)cc3)C2)CC[C@H]1C(=O)O [Compound I-69, (1R,4S)-4-((3-(4-(2-(2-aminopyridin-3-yl)-5-phenyl-3H-imidazo[4,5-b]pyridin-3-yl)phenyl)azetidin-1-yl)methyl)-2,2-dimethylcyclohexane-1-carboxylic acid]
IC50 [1]: < 20000 nM | IC50 [2]: < 500 nM

Cc1cc2nc(-c3cccnc3N)n(-c3ccc(C4CN(C[C@H]5CC[C@H](C(=O)O)CC5)C4)cc3)c2nc1-c1ccccc1 [Compound I-235, trans-4-((3-(4-(2-(2-aminopyridin-3-yl)-6-methyl-5-phenyl-3H-imidazo[4,5-b]pyridin-3-yl)phenyl)azetidin-1-yl)methyl)cyclohexane-1-carboxylic acid]
IC50 [1]: < 20000 nM | IC50 [2]: < 500 nM

Nc1ncccc1-c1nc2ccc(-c3ccccc3)nc2n1-c1ccc(NC(=O)C2CCCC(C(=O)O)C2)nc1 (centres unmarked) [Compound I-11, 3-((5-(2-(2-aminopyridin-3-yl)-5-phenyl-3H-imidazo[4,5-b]pyridin-3-yl)pyridin-2-yl)carbamoyl)cyclohexane-1-carboxylic acid]
IC50 [1]: < 20000 nM | IC50 [2]: < 500 nM

Nc1ncccc1-c1nc2ccc(-c3ccccc3)nc2n1-c1ccc(CN2CC3(CC(C(=O)O)C3)C2)nc1 [Compound I-136, 2-((5-(2-(2-aminopyridin-3-yl)-5-phenyl-3H-imidazo[4,5-b]pyridin-3-yl)pyridin-2-yl)methyl)-2-azaspiro[3.3]heptane-6-carboxylic acid]
IC50 [1]: < 20000 nM | IC50 [2]: 500 to 2000 nM

Cc1ccccc1-c1ccc2nc(-c3cccnc3N)n(-c3ccc(C4CN(C[C@H]5CC[C@H](C(=O)O)CC5)C4)cc3)c2n1 [Compound I-212]
IC50 [1]: < 20000 nM | IC50 [2]: 500 to 2000 nM

CN(Cc1ccc(-n2c(-c3cccnc3N)nc3ccc(-c4ccccc4)nc32)cc1)[C@H]1CC[C@H](C(=O)O)CC1 [Compound I-96, (1r,4r)-4-((4-(2-(2-aminopyridin-3-yl)-5-phenyl-3H-imidazo[4,5-b]pyridin-3-yl)benzyl)(methyl)amino)cyclohexane-1-carboxylic acid]
IC50 [1]: < 20000 nM | IC50 [2]: < 500 nM

Nc1ncccc1-c1nc2ccc(-c3ccccc3)nc2n1-c1ccc(C(=O)N2CC3(CC(C(=O)O)C3)C2)cc1 [Compound I-80, 2-(4-(2-(2-aminopyridin-3-yl)-5-phenyl-3H-imidazo[4,5-b]pyridin-3-yl)benzoyl)-2-azaspiro[3.3]heptane-6-carboxylic acid]
IC50 [1]: < 20000 nM | IC50 [2]: ≥ 2000 nM

CC(C)(N[C@@H]1CC[C@H](C(=O)O)C1)c1ccc(-n2c(-c3cccnc3N)nc3ccc(-c4ccccc4)nc32)cc1 [Compound I-88, (1S,3R)-3-((2-(4-(2-(2-aminopyridin-3-yl)-5-phenyl-3H-imidazo[4,5-b]pyridin-3-yl)phenyl)propan-2-yl)amino)cyclopentane-1-carboxylic acid]
IC50 [1]: < 20000 nM | IC50 [2]: ≥ 2000 nM

CC(C)(C(=O)O)C1CCN(Cc2ccc(-n3c(-c4cccnc4N)nc4ccc(-c5ccccc5)nc43)cn2)CC1 [Compound I-135, 2-(1-((5-(2-(2-aminopyridin-3-yl)-5-phenyl-3H-imidazo[4,5-b]pyridin-3-yl)pyridin-2-yl)methyl)piperidin-4-yl)-2-methylpropanoic acid]
IC50 [1]: < 20000 nM | IC50 [2]: ≥ 2000 nM

Cc1cc(C2CN(CC3CC4(C3)CC(C(=O)O)C4)C2)ccc1-n1c(-c2cccnc2N)nc2ccc(-c3ccccc3)cc21 (centres unmarked) [Compound I-224]
IC50 [1]: < 20000 nM | IC50 [2]: ≥ 2000 nM

Cc1nc(NC(=O)[C@H]2CC[C@H](C(=O)O)CC2)ccc1-n1c(-c2cccnc2N)nc2ccc(-c3ccccc3F)nc21 [Compound I-218]
IC50 [1]: < 20000 nM | IC50 [2]: 500 to 2000 nM

CC1(C)CC(CN2CCC(c3ccc(-n4c(-c5cccnc5N)nc5ccc(-c6ccccc6)nc54)cc3)CC2)CCC1C(=O)O (centres unmarked) [Compound I-193]
IC50 [1]: < 20000 nM | IC50 [2]: ≥ 2000 nM

Nc1ncccc1-c1nc2ccc(-c3ccccc3)nc2n1-c1ccc(CN2CC3(CC(C(=O)O)C3)C2)cc1 [Compound I-93, 2-(4-(2-(2-aminopyridin-3-yl)-5-phenyl-3H-imidazo[4,5-b]pyridin-3-yl)benzyl)-2-azaspiro[3.3]heptane-6-carboxylic acid]
IC50 [1]: < 20000 nM | IC50 [2]: 500 to 2000 nM

Nc1ncccc1-c1nc2ccc(-c3ccccc3F)nc2n1-c1ccc([C@H]2CCN(C[C@H]3CC[C@H](C(=O)O)CC3)C2)cc1 (single isomer, unassigned) [Compound I-230]
IC50 [1]: < 20000 nM | IC50 [2]: 500 to 2000 nM

CC1(C)C[C@@H](C(=O)O)CC[C@@H]1CN1CC(c2ccc(-n3c(-c4cccnc4N)nc4ccc(-c5ccccc5)nc43)cc2)C1 (stereo in doubt) [Compound I-145]
IC50 [1]: < 20000 nM | IC50 [2]: 500 to 2000 nM

Nc1ncccc1-c1nc2ccc(-c3ccccc3)nc2n1-c1ccc(NC(=O)[C@H]2CC[C@H](C(=O)O)CC2)c(F)c1 [Compound I-6, (1r,4r)-4-((4-(2-(2-aminopyridin-3-yl)-5-phenyl-3H-imidazo[4,5-b]pyridin-3-yl)-2-fluorophenyl)carbamoyl)cyclohexane-1-carboxylic acid]
IC50 [1]: < 20000 nM | IC50 [2]: 500 to 2000 nM

Nc1ncccc1-c1nc2ccc(-c3ccccc3)nc2n1-c1ccc(NC[C@H]2CC[C@H](C(=O)O)CC2)nc1 [Compound I-43, (1r,4r)-4-(((5-(2-(2-aminopyridin-3-yl)-5-phenyl-3H-imidazo[4,5-b]pyridin-3-yl)pyridin-2-yl)amino)methyl)cyclohexane-1-carboxylic acid]
IC50 [1]: < 20000 nM | IC50 [2]: < 500 nM

CC(c1ccc(-n2c(-c3cccnc3N)nc3ccc(-c4ccccc4)nc32)cc1)N1CCCC(C(=O)O)C1 (centres unmarked) [Compound I-83, 1-(1-(4-(2-(2-aminopyridin-3-yl)-5-phenyl-3H-imidazo[4,5-b]pyridin-3-yl)phenyl)ethyl)piperidine-3-carboxylic acid]
IC50 [1]: < 20000 nM | IC50 [2]: ≥ 2000 nM

CN(Cc1ccc(-n2c(-c3cccnc3N)nc3ccc(-c4ccccc4)nc32)cc1)C1CC[C@H](C(=O)O)C1 (some centres unmarked) [Compound I-172]
IC50 [1]: < 20000 nM | IC50 [2]: < 500 nM
